Experiment [1] deals with Ba/F3 EGFR-D770_N771insSVD (Homo sapiens, UniProt P00533, DUP768-770, cells depend on it). The experiment can be described thus: Anti-proliferation against Ba/F3 exon 20 insertion mutant cells (SVD). The format is cell-based, mouse. The following applies: CTG, 72 hours, read-out: Mutant cells IC50 (anti-proliferation). An excerpt: RPMI1640 medium was purchased from Hyclone, FBS fetal bovine serum was purchased from GBICO, and trypsin-EDTA were both purchased from Giboco. DPBS was purchased from Corning, penicillin/streptomycin solution was purchased from Hyclone, and Cell-Titer Glo reagent was purchased from Promega (Cat. No. G7572). Ba/F3 EGFR-D770_N771insSVD, Ba/F3 EGFR-H773_V774insNPH, Ba/F3 EGFR-V769_D770insASV, BaF3 ERBB2 A775_G776 ins YVMA, the cell lines were constructed by Beijing Kang Yuan Bochuang Biotechnology Co., Ltd. Plate reading instrument: Envision (PerkinElmer).
Cells in logarithmic growth phase were harvested and cell counts were performed using a […]. Cell viability was detected by the Taipan Blue rejection assay. The cell concentration was adjusted; the cell suspension was added to a 96-well plate separately. Cells in 96-well plates were incubated overnight at 37° C., 5% CO2, and 95% humidity. To prepare the drug solution, 10 μL of drug solution was added to each well of the 96-well plate inoculated with cells, and three replicate wells were set up for each drug concentration. The cells in the 96-well plates added with drugs were placed at 37° C., 5% CO2, 95% humidity and continued to incubate for 72 hours, after which CTG analysis was performed and the cells were vibrated on an orbital shaker to lyse the cells. The cell plate was placed at room temperature to stabilize the cold light signal, and the cold light values were read. The data were analyzed using GraphPad Prism 7.0 software, and a nonlinear S-curve regression was used to fit the data to derive the dose-effect curve from which the IC50 values were calculated.
The IC50 of anti-proliferation activity against Ba/F3 Exon20 insertion mutant cells of the compounds of the present disclosure is shown in Table 5.
Ba/F3 exon 20 insertion mutant cells are cell lines with SVD, NPH, ASV, and YVMA insertion mutations artificially constructed using mouse B cells, and it can be seen from Table 5 that the compounds of the present disclosure have better cellular anti-proliferation activity against the […] exon 20 insertion mutations such as SVD, NPH, ASV, and YVMA, and also show better anti-proliferation activity against common exon 20 insertion mutations such as SVD mutation.

In experiment [2] the test system is non-small cell lung cancer with EGFR and HER2 exon 20 insertion mutation. The following applies: clinical reports, NSCLC with EGFR and HER2 exon 20 insertion mutation; cited from earlier work.

Ba/F3 EGFR-D770_N771insSVD, sequence (P00533 with tags, fused parts or gaps DUP768-770): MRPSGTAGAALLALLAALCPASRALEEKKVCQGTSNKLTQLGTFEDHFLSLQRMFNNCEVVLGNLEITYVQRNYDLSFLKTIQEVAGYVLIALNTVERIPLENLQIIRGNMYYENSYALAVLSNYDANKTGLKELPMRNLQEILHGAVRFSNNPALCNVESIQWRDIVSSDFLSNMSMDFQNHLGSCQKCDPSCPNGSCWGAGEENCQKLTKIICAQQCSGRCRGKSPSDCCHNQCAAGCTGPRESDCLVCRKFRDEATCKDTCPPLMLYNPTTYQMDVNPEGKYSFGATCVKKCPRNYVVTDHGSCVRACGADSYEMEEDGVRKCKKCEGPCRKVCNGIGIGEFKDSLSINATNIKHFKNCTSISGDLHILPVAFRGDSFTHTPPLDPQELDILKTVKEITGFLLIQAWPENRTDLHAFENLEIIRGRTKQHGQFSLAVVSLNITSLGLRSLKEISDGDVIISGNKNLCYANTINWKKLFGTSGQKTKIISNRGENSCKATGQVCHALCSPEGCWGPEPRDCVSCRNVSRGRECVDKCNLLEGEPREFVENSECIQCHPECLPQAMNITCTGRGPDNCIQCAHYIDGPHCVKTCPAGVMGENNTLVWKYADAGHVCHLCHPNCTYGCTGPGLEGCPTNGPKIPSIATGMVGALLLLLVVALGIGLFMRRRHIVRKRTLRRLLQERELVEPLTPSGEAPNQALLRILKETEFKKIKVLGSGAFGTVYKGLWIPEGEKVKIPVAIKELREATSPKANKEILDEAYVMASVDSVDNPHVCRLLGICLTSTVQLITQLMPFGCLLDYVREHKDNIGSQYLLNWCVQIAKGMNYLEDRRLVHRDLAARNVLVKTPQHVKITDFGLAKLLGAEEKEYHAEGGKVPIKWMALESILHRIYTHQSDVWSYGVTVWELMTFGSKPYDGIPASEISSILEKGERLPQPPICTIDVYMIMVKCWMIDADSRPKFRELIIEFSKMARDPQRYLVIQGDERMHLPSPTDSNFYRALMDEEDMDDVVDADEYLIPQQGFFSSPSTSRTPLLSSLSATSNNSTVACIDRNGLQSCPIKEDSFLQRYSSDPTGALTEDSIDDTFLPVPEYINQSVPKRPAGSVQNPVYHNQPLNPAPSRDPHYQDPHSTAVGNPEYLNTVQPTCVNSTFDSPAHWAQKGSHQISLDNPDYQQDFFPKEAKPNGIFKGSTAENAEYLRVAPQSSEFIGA

As for `C=CC(=O)Nc1cc(Nc2ncc(C(=O)OC(C)C)c(-c3cn(OCC)c4ccccc34)n2)c(OC)cc1N(C)CCN(C)C` [Compound 2], the GI50 in experiment [1] stood at 27 nM.
In the case of `C=CC(=O)Nc1cc(Nc2ncc(C(=O)OC(C)C)c(-c3cn(OC(C)C)c4ccccc34)n2)c(OC)cc1N(C)CCN(C)C` [Compound 3], the GI50 in experiment [1] stood at 54 nM.
On the same count and under the same terms, for `C=CC(=O)Nc1cc(Nc2ncc(C(=O)OC(C)C)c(-c3cn(OC)c4c(Cl)cccc34)n2)c(OC)cc1N(C)CCN(C)C` [Compound 4] the value was 33 nM; for `C=CC(=O)Nc1cc(Nc2ncc(C(=O)OC(C)C)c(-c3cn(OC)c4c(C5CC5)cccc34)n2)c(OC)cc1N(C)CCN(C)C` [Compound 5], 58 nM.
For `C=CC(=O)Nc1cc(Nc2ncc(C(=O)OC(C)C)c(-c3cn(C)c4ccccc34)n2)c(OC)cc1N(C)CCN(C)C` [TAK788], in experiment [2], the disease control rate is reported as 86% and the objective response rate was 43%.

Source of the values: US11530196B2, “Pyrimidine compound acting on EGFR and ERBB2” (CHINA RESOURCES PHARMACEUTICAL HOLDINGS COMPANY LIMITED, priority 2019, dated 2022).
